Reference: patent publication US20250230129A1, “POLYAMIDE COMPOUNDS, METHOD FOR PREPARING SAME, AND MEDICAL USE THEREOF” (priority 2022, published 2025)
pEC50, pKi: −log10 of the molar value. Like-named read-outs stand apart in the source and are kept apart here. Square brackets hold non-standard residues; d marks the D form. Peptide text beside a SMILES is read from it. * marks the point of attachment. Piperidin1yl(4-NH2,4-COOH) = NC1(C(=O)O)CCN(*)CC1; dPhLac = O=C(O)[C@H](O)Cc1ccccc1; X4 = COC(=O)NC1CCN(*)CC1

Tests used:
[1] = target: κ receptor (Homo sapiens (Human), UniProt P41145); assay: Competitive Kappa receptor binding assay (3H-U69593)
[2] = target: δ receptor (Homo sapiens (Human), UniProt P41143); assay: Competitive delta receptor binding assay (3H-DADLE)
[3] = target: μ receptor (Homo sapiens (Human), UniProt P35372); assay: μ receptor affinity assay (3H-DAMGO); type: binding
[4] = target: κ-opioid receptor (Kappa) (Homo sapiens (Human), UniProt P41145); assay: In vitro functional assay, HTRF cAMP-Gi in CHO-K1-OPRK1 cells; type: cell-based
[5] = PK and blood-brain barrier permeability in mice; type: in vivo; details: male ICR mice, intravenous 1 mg/kg
Procedure: The compounds of the present disclosure were investigated for pharmacokinetic characteristics and blood-brain barrier permeability in mice.
Healthy male ICR mice were randomly grouped, 6 animals per group. For each test compound, 3 groups of animals were used. The first group of animals was used for collecting blood and brain 5 min after the administration, and the second group of animals and the third group of animals were used for cross blood collection at subsequent time points; each test compound was intravenously administered (1 mg/kg) to corresponding groups of mice, and blood sampling via submaxillary veins of the mice was carried out at different time points. Drug contents in plasma and brain tissues at different time points were measured by an LC-MS/MS method, the brain-to-blood ratio B/P was calculated by using EXCEL software, and pharmacokinetic parameters were calculated by using DAS3.0 software.

[6] = read-out: In vitro agonistic effects on k-opioid receptors EC50
[7] = CHO-K1-Kappa membranes, 3H-U69593 2 nM, read-out: κ receptor Ki
[8] = CHO-K1-delta membranes, 3H-DADLE 4 nM, read-out: δ receptor Ki
[9] = CHO-K1-μ membranes, 3H-DAMGO 2 nM, read-out: μ receptor Ki
[10] = CHO-K1-OPRK1 cells, cAMP, 1 μM Forskolin, read-out: In vitro agonistic effects on k-opioid receptors EC50

Compound	pKi [1]	pKi [2]	pKi [3]	pEC50 [4]	further results
CC(C)C[C@@H](NC(=O)[C@@H](Cc1ccccc1)NC(=O)N(C)C(CN)c1ccccc1)C(=O)N[C@H](CCCCN)C(=O)N1CCS(=O)(=O)CC1 (stereo partly drawn) [Compound 36]	9.01	< 6.00	< 6.00	9.46	–
CC(C)C[C@@H](NC(=O)[C@@H](Cc1ccccc1)NC(=O)N(CCN)Cc1ccccc1)C(=O)N[C@H](CCCCN)C(=O)N1CCC(NC(=O)OC2CCOCC2)CC1 [Compound 24]	9.44	< 6.00	< 6.00	9.57	–
CNCCN(Cc1ccccc1)C(=O)N[C@H](Cc1ccccc1)C(=O)N[C@H](CC(C)C)C(=O)C[C@H](CCCCN)C(=O)N1CCC(N)(C(=O)O)CC1 [Compound 28]	–	–	–	–	pKi ([1]; read-out: κ receptor Ki): 8.48; pKi ([2]; read-out: δ receptor Ki): < 6.00; pKi ([3]; read-out: μ receptor Ki): < 6.00
CC(C)C[C@@H](NC(=O)[C@@H](Cc1ccccc1)NC(=O)N(C)C(CN)c1ccccc1)C(=O)C[C@H](CCCCN)C(=O)N1CCC(N)(C(=O)OC(C)C)CC1 (stereo partly drawn) [Compound 15]	–	–	–	–	pKi ([1]; read-out: κ receptor Ki): 9.08; pKi ([2]; read-out: δ receptor Ki): < 6.00; pKi ([3]; read-out: μ receptor Ki): < 6.00; pEC50 [4, 6]: 9.20
(2R)-2-[(2R)-2-{[(2-amino-1-phenylethyl)(methyl)carbamoyl)amino}-3-phenylpropionylamino]-N-[(2R)-6-amino-1-{4-[(methylcarbamoyl)amino]piperidin-1-yl}-1-oxohexyl-2-yl]-4-methylpentanamide [Compound 8]	–	–	–	–	pKi ([1]; read-out: κ receptor Ki): 10.05; pKi ([2]; read-out: δ receptor Ki): < 6.00; pKi ([3]; read-out: μ receptor Ki): < 6.00; pEC50 [4, 6]: 9.05
CC(C)C[C@@H](NC(=O)[C@@H](Cc1ccccc1)NC(=O)N(C)C(CN)c1ccccc1)C(=O)N[C@H](CCCCN)C(=O)N1CCC2(CC1)CNC(=O)c1ncccc12 (stereo partly drawn) [Compound 32]	9.24	< 6.00	< 6.00	9.19	–
CNC(=O)NC1CCN(C(=O)[C@@H](CCCCN)NC(=O)[C@@H](CC(C)C)NC(=O)[C@@H](Cc2ccccc2)NC(=O)N(CCN)Cc2ccccc2)CC1 [Compound 17]	9.36	< 6.00	< 6.00	9.52	–
CC(C)C[C@@H](NC(=O)[C@@H](Cc1ccccc1)NC(=O)N(CCN)Cc1ccccc1)C(=O)N[C@H](CCCCN)C(=O)N1CCC(F)(C(=O)O)CC1 [Compound 34]	9.22	< 6.00	< 6.00	9.15	–
CC(C)C[C@@H](NC(=O)[C@@H](Cc1ccccc1)NC(=O)[C@H](O)Cc1ccccc1)C(=O)N[C@H](CCCCN)C(=O)N1CCC(N)(C(=O)O)CC1 [Compound 3] (H-[dPhLac][dF][dL][dK]-{Piperidin1yl(4-NH2,4-COOH)})	8.48	< 6.00	< 6.00	–	–
COC(=O)C1(N)CCN(C(=O)[C@@H](CCCCN)NC(=O)[C@@H](CC(C)C)NC(=O)[C@@H](Cc2ccccc2)NC(=O)N(C)C(CN)c2ccccc2)CC1 (stereo partly drawn) [Compound 14]	8.96	< 6.00	< 6.00	8.09	–
CC(C)C[C@@H](NC(=O)[C@@H](Cc1ccccc1)NC(=O)N(CCN)Cc1ccc(F)cc1)C(=O)C[C@H](CCCCN)C(=O)N1CCC(N)(C(=O)O)CC1 [Compound 50]	–	–	–	–	pKi ([1]; read-out: κ receptor Ki): 9.57; pKi ([2]; read-out: δ receptor Ki): < 6.00; pKi ([3]; read-out: μ receptor Ki): < 6.00; pEC50 [4, 6]: 9.37
COC(=O)N1CCN(C(=O)[C@@H](CCCCN)NC(=O)[C@@H](CC(C)C)NC(=O)[C@@H](Cc2ccccc2)NC(=O)N(CCN)Cc2ccccc2)CC1 [Compound 46]	9.54	< 6.00	< 6.00	9.66	–
CC(C)C[C@@H](NC(=O)[C@@H](Cc1ccccc1)NC(=O)[C@H](N)Cc1ccccc1)C(=O)N[C@H](CCCCN)C(=O)N1CCC(N)(C(=O)O)CC1 [CR845, D-Phe-D-Phe-D-Leu-D-Lys-[ω(4-aminopiperidine-4-carboxylic acid)]-OH, reference compound]	–	–	–	–	B/P (brain-to-blood ratio) ([5]; blood and brain 5 min after administration): 0.015; AUC(0-inf) ([5]; mouse, plasma): 653 ng·h/mL; Vd ([5]; mouse, plasma): 0.6 L/kg; clearance ([5]; mouse, plasma): 27 mL/min/kg; half-life ([5]; mouse, plasma, read-out: t½ (converted)): 15.6 min; Cmax ([5]; mouse, plasma): 1620 ng/mL
CC(=O)N1CCN(C(=O)[C@@H](CCCCN)NC(=O)[C@@H](CC(C)C)NC(=O)[C@@H](Cc2ccccc2)NC(=O)N(CCN)Cc2ccccc2)CC1 [Compound 47]	9.31	< 6.00	< 6.00	9.62	–
COC(=O)NC1CCN(C(=O)[C@@H](C)NC(=O)[C@@H](CC(C)C)NC(=O)[C@@H](Cc2ccccc2)NC(=O)[C@H](N)Cc2ccccc2)CC1 [Compound 12A] (H-[dF][dF][dL][dA]-X4)	9.47	< 6.00	< 6.00	10.15	–
CC(=O)NC1CCN(C(=O)[C@@H](CCCCN)NC(=O)[C@@H](CC(C)C)NC(=O)[C@@H](Cc2ccccc2)NC(=O)N(CCN)Cc2ccccc2)CC1 [Compound 45]	9.28	< 6.00	< 6.00	9.80	–

Compound	pKi [1]	pKi [2]	pKi [3]	pEC50 [4]	further results
COC(=O)NC1CCN(C(=O)[C@@H](C)NC(=O)[C@@H](CC(C)C)NC(=O)[C@@H](Cc2ccccc2)NC(=O)N(CCN)Cc2ccccc2)CC1 [Compound 42]	9.33	< 6.00	< 6.00	9.34	–
CC(C)C[C@@H](NC(=O)[C@@H](Cc1ccccc1)NC(=O)N(CCN)Cc1ccccc1)C(=O)N[C@H](CCCCN)C(=O)N1CCC2(CC1)OC(=O)Nc1ncccc12 [Compound 22]	–	–	–	–	pKi [1, 7]: 9.46; pKi [2, 8]: < 6.00; pKi [3, 9]: < 6.00; pEC50 [4, 10]: 9.44
CC(C)C[C@@H](NC(=O)[C@@H](Cc1ccccc1)NC(=O)N(CCN)Cc1cccnc1)C(=O)C[C@H](CCCCN)C(=O)N1CCC(N)(C(=O)O)CC1 [Compound 18]	–	–	–	–	pKi ([1]; read-out: κ receptor Ki): 9.68; pKi ([2]; read-out: δ receptor Ki): < 6.00; pKi ([3]; read-out: μ receptor Ki): < 6.00; pEC50 [4, 6]: 9.74
CC(C)C[C@@H](NC(=O)[C@@H](Cc1ccccc1)NC(=O)N(CCN)Cc1ccccc1)C(=O)N[C@H](CCCCN)C(=O)N1CCNCC1 [Compound 40]	9.24	< 6.00	< 6.00	9.89	–
CC(C)C[C@@H](NC(=O)[C@@H](Cc1ccccc1)NC(=O)N(CCN)CC1CC1)C(=O)N[C@H](CCCCN)C(=O)N1CCC(N)(C(=O)O)CC1 [Compound 48]	8.42	< 6.00	< 6.00	7.92	–
CC(=O)N(CCCN)C1CCN(C(=O)[C@@H](C)CC(=O)[C@@H](CC(C)C)NC(=O)[C@H](CC(=O)N(CCN)Cc2ccccc2)Cc2ccccc2)CC1 [Compound 44]	–	–	–	–	pKi ([1]; read-out: κ receptor Ki): 9.26; pKi ([2]; read-out: δ receptor Ki): < 6.00; pKi ([3]; read-out: μ receptor Ki): < 6.00; pEC50 [4, 6]: 10.05
CC(C)C[C@@H](NC(=O)[C@@H](Cc1ccccc1)NC(=O)N(CCN)Cc1ccccc1)C(=O)N[C@H](CCCCN)C(=O)N1CCOCC1 [Compound 39]	9.57	< 6.00	< 6.00	9.46	–
CN=S1(=O)CCN(C(=O)[C@@H](CCCCN)NC(=O)[C@@H](CC(C)C)NC(=O)[C@@H](Cc2ccccc2)NC(=O)N(CCN)Cc2ccccc2)CC1 [Compound 20]	9.24	< 6.00	< 6.00	9.28	–
CNS(=O)(=O)NC1CCN(C(=O)[C@@H](CCCCN)NC(=O)[C@@H](CC(C)C)NC(=O)[C@@H](Cc2ccccc2)NC(=O)N(CCN)Cc2ccccc2)CC1 [Compound 26]	–	–	–	–	pKi [1, 7]: 9.51; pKi [2, 8]: < 6.00; pKi [3, 9]: < 6.00; pEC50 [4, 10]: 9.60
CC(C)C[C@@H](NC(=O)[C@@H](Cc1ccccc1)NC(=O)C[C@H](N)c1ccccc1)C(=O)N[C@H](CCCCN)C(=O)N1CCC(N)(C(=O)O)CC1 [Compound 4-100, 4-amino-1-[(2R)-6-amino-2-[(2R)-2-[(2R)-2-[(3S)-3-amino-3-phenylpropionylamino]-3-phenylpropionylamino]-4-methylpentanoylamino]hexanoyl]piperidine-4-carboxylic acid]	7.22	< 6.00	< 6.00	–	–
CC(C)C[C@@H](NC(=O)[C@@H](Cc1ccccc1)NC(=O)N(C)C(CN)c1ccccc1)C(=O)N[C@H](CCCCN)C(=O)N1CCC(NC(=O)OC2CCOCC2)CC1 (stereo partly drawn) [Compound 33]	9.25	< 6.00	< 6.00	9.09	–
CC(C)C[C@@H](NC(=O)[C@@H](Cc1ccccc1)NC(=O)N(CCN)Cc1cncnc1)C(=O)C[C@H](CCCCN)C(=O)N1CCC(N)(C(=O)O)CC1 [Compound 19]	–	–	–	–	pKi ([1]; read-out: κ receptor Ki): 9.05; pKi ([2]; read-out: δ receptor Ki): < 6.00; pKi ([3]; read-out: μ receptor Ki): < 6.00; pEC50 [4, 6]: 9.06
CC(C)C[C@@H](NC(=O)[C@@H](Cc1ccccc1)NC(=O)N(CCN)Cc1ccccc1)C(=O)N[C@H](CCCCN)C(=O)N1CCC(C#N)CC1 [Compound 35]	9.74	< 6.00	< 6.00	9.77	–
COC(=O)N=S1(=O)CCN(C(=O)[C@@H](CCCCN)NC(=O)[C@@H](CC(C)C)NC(=O)[C@@H](Cc2ccccc2)NC(=O)[C@H](N)Cc2ccccc2)CC1 [Compound 4B]	8.73	< 6.00	< 6.00	9.19	–
CC(C)C[C@@H](NC(=O)[C@@H](Cc1ccccc1)NC(=O)N(C)C(CN)c1ccccc1)C(=O)N[C@H](CCCCN)C(=O)N1CCOCC1 (stereo partly drawn) [Compound 37]	9.39	< 6.00	< 6.00	9.41	–
